Reference: patent EP0304279B1, “Peptide determinant associated with immunity” (THE BOARD OF TRUSTEES OF THE LELAND STANFORD JUNIOR …, priority 1987, dated 1997)

Key:
[1] = test system: clone F1-28, a MBP-specific T-cell; settings: Zamvil et al., Nature (1986) 324:258; cited from earlier work
[2] = test system: clone F1-28, a MBP-specific T-cell; assay: Stimulation of MBP-specific T-cell clone by synthetic peptide (proliferation assay); type: cell-based; settings: T-cell clone F1-28 recognizing the autoantigen myelin basic protein
Excerpt: The determinant of myelin basic protein (MBP) P5-17 (Zamvil, et al., Nature, supra) contains a pattern P-S-Q-R-H-G-S-K-Y-L-A-T-A. Using the algorithm for the subject motif for predicting T-cell clones the epitope of the clone F1-28, a MBP-specific T-cell was isolated (Zamvil, et al., J. Exp. Med. (1985) 162: 2107), which clone recognizes the autoantigen myelin basic protein. A peptide corresponding to amino acids P35-47 containing two patterns GILD and RFFS was synthesized and shown to be stimulatory.
(§1) Proliferation Assay: Proliferative responses were determined as described previously (Zamvil et al., Nature (1985) 317:355). 1x10^4 T-cells were cultured with 5x10^5 X-irradiated (3,000 rad) PL/J splenic APC in 0.2 ml of culture media in 96 well flat-bottomed microtiter plates (Falcon, 3072). Peptides were added to culture giving the final concentrations indicated. At 48 hours incubation, each well was pulsed with 1 µCi ^3H-thymidine and harvested 16 hours later. The mean c.p.m. thymidine incorporation was calulated for triplicate cultures. Standard deviations from replicate cultures were within 10% mean value.

[3] = test system: mouse T-cells; assay: Proliferation assay (3H-thymidine incorporation) of MHC-restricted T-cells with PL/J splenic APC; type: cell-based
Procedure: as §1

For “L-D-S-I-G-R-F-F-S-G-D-R-G-A-P (LDSIGRFFSGDRGAP)”, the “stimulatory epitope defined with overlapping peptides” value [1] is listed as “stimulatory epitope”.

With “G-I-L-D-S-I-G-R-F-F-S-G-D-R-G-A-P (GILDSIGRFFSGDRGAP) [P35-47, peptide of myelin basic protein containing two patterns GILD and RFFS]” the T-cell stimulation [2] was “stimulatory” and the T-cell stimulation ([3]; mouse T-cells restricted by MHC I-E(u)α E(u)β) was “stimulatory”.

For “P89-101: P89-101 of the human myelin basic protein comprising the motif HFFK (PHLIRLFSRDAPG; UniProt P02686 89-101, looked up, fragment)”, the T-cell stimulation ([3]; mouse T-cells restricted by I-A(s)α A(s)β) was “stimulatory”.
